Results published in BigSolDB 2.1.

**Q.** What does the source list for `O=C(O)CCP(=O)([O-])c1ccccc1.[Na+]`?
**A.** solubility (mole fraction) (in acetic acid, 293.15 K): 0.0169; solubility (mole fraction) (in acetic acid, 298.15 K): 0.0205; solubility (mole fraction) (in acetic acid, 303.15 K): 0.0225; solubility (mole fraction) (in acetic acid, 308.15 K): 0.0264; solubility (mole fraction) (in acetic acid, 313.15 K): 0.0283; solubility (mole fraction) (in acetic acid, 318.15 K): 0.0312; solubility (mole fraction) (in acetic acid, 323.15 K): 0.0357; solubility (mole fraction) (in acetic acid, 328.15 K): 0.0404; solubility (mole fraction) (in acetic acid, 333.15 K): 0.0471; solubility (mole fraction) (in acetic acid, 343.15 K): 0.062; solubility (mole fraction) (in acetone, 293.15 K): 7e-05; solubility (mole fraction) (in acetone, 298.15 K): 0.00011; solubility (mole fraction) (in acetone, 303.15 K): 0.00016; solubility (mole fraction) (in acetone, 308.15 K): 0.00024; solubility (mole fraction) (in acetone, 313.15 K): 0.00035; solubility (mole fraction) (in acetone, 318.15 K): 0.00051; solubility (mole fraction) (in acetone, 323.15 K): 0.00075; solubility (mole fraction) (in ethanol, 293.15 K): 0.00065; solubility (mole fraction) (in ethanol, 298.15 K): 0.00076; solubility (mole fraction) (in ethanol, 303.15 K): 0.00095; solubility (mole fraction) (in ethanol, 308.15 K): 0.00106; solubility (mole fraction) (in ethanol, 313.15 K): 0.00122; solubility (mole fraction) (in ethanol, 318.15 K): 0.00166; solubility (mole fraction) (in ethanol, 323.15 K): 0.00199; solubility (mole fraction) (in ethanol, 328.15 K): 0.00223; solubility (mole fraction) (in ethanol, 333.15 K): 0.00273; solubility (mole fraction) (in ethanol, 343.15 K): 0.00413; solubility (mole fraction) (in ethyl acetate, 293.15 K): 0.00039; solubility (mole fraction) (in ethyl acetate, 298.15 K): 0.00051; solubility (mole fraction) (in ethyl acetate, 303.15 K): 0.000685; solubility (mole fraction) (in ethyl acetate, 308.15 K): 0.00096; solubility (mole fraction) (in ethyl acetate, 313.15 K): 0.00117; solubility (mole fraction) (in ethyl acetate, 318.15 K): 0.00165; solubility (mole fraction) (in ethyl acetate, 323.15 K): 0.00204; solubility (mole fraction) (in ethyl acetate, 328.15 K): 0.00285; solubility (mole fraction) (in ethyl acetate, 333.15 K): 0.00384; solubility (mole fraction) (in ethyl acetate, 343.15 K): 0.00602; solubility (mole fraction) (in methanol, 293.15 K): 0.00612; solubility (mole fraction) (in methanol, 298.15 K): 0.00671; solubility (mole fraction) (in methanol, 303.15 K): 0.00719; solubility (mole fraction) (in methanol, 308.15 K): 0.00779; solubility (mole fraction) (in methanol, 313.15 K): 0.00831; solubility (mole fraction) (in methanol, 318.15 K): 0.009; solubility (mole fraction) (in methanol, 323.15 K): 0.00993; solubility (mole fraction) (in water, 293.15 K): 0.0196; solubility (mole fraction) (in water, 298.15 K): 0.0201; solubility (mole fraction) (in water, 303.15 K): 0.0214; solubility (mole fraction) (in water, 308.15 K): 0.0222; solubility (mole fraction) (in water, 313.15 K): 0.0232; solubility (mole fraction) (in water, 318.15 K): 0.0248; solubility (mole fraction) (in water, 323.15 K): 0.0263; solubility (mole fraction) (in water, 328.15 K): 0.0277; solubility (mole fraction) (in water, 333.15 K): 0.0295; solubility (mole fraction) (in water, 343.15 K): 0.0316

**Q.** What does the source list for `O=C([O-])CCP(=O)([O-])c1ccccc1.[Na+].[Na+]`?
**A.** solubility (mole fraction) (in acetic acid, 293.15 K): 0.000543; solubility (mole fraction) (in acetic acid, 298.15 K): 0.000554; solubility (mole fraction) (in acetic acid, 303.15 K): 0.000569; solubility (mole fraction) (in acetic acid, 308.15 K): 0.000581; solubility (mole fraction) (in acetic acid, 313.15 K): 0.000603; solubility (mole fraction) (in acetic acid, 318.15 K): 0.000626; solubility (mole fraction) (in acetic acid, 323.15 K): 0.000644; solubility (mole fraction) (in acetic acid, 328.15 K): 0.000663; solubility (mole fraction) (in acetic acid, 333.15 K): 0.000703; solubility (mole fraction) (in acetic acid, 343.15 K): 0.000742; solubility (mole fraction) (in acetone, 293.15 K): 3.66e-05; solubility (mole fraction) (in acetone, 298.15 K): 3.89e-05; solubility (mole fraction) (in acetone, 303.15 K): 4.13e-05; solubility (mole fraction) (in acetone, 308.15 K): 4.39e-05; solubility (mole fraction) (in acetone, 313.15 K): 4.62e-05; solubility (mole fraction) (in acetone, 318.15 K): 4.83e-05; solubility (mole fraction) (in acetone, 323.15 K): 5.24e-05; solubility (mole fraction) (in ethanol, 293.15 K): 7.03e-05; solubility (mole fraction) (in ethanol, 298.15 K): 9.7e-05; solubility (mole fraction) (in ethanol, 303.15 K): 0.000138; solubility (mole fraction) (in ethanol, 308.15 K): 0.000197; solubility (mole fraction) (in ethanol, 313.15 K): 0.000264; solubility (mole fraction) (in ethanol, 318.15 K): 0.000352; solubility (mole fraction) (in ethanol, 323.15 K): 0.000505; solubility (mole fraction) (in ethanol, 328.15 K): 0.000728; solubility (mole fraction) (in ethanol, 333.15 K): 0.000926; solubility (mole fraction) (in ethanol, 343.15 K): 0.00164; solubility (mole fraction) (in methanol, 293.15 K): 2.2e-05; solubility (mole fraction) (in methanol, 298.15 K): 2.26e-05; solubility (mole fraction) (in methanol, 303.15 K): 2.28e-05; solubility (mole fraction) (in methanol, 308.15 K): 2.3e-05; solubility (mole fraction) (in methanol, 313.15 K): 2.34e-05; solubility (mole fraction) (in methanol, 318.15 K): 2.4e-05; solubility (mole fraction) (in methanol, 323.15 K): 2.44e-05; solubility (mole fraction) (in water, 293.15 K): 0.000904; solubility (mole fraction) (in water, 298.15 K): 0.000906; solubility (mole fraction) (in water, 303.15 K): 0.000908; solubility (mole fraction) (in water, 308.15 K): 0.000909; solubility (mole fraction) (in water, 313.15 K): 0.000911; solubility (mole fraction) (in water, 318.15 K): 0.000912; solubility (mole fraction) (in water, 323.15 K): 0.000913; solubility (mole fraction) (in water, 328.15 K): 0.000915; solubility (mole fraction) (in water, 333.15 K): 0.000916; solubility (mole fraction) (in water, 343.15 K): 0.000918
